# Tests used:
# [1] = molecular target: T1, (Ovis aries, UniProt P05979); experiment: In vitro human COX-1 enzymatic inhibitory activity (Cayman COX inhibitor screening assay kit); type: biochemical; settings: mean ± SEM of triplicate determinations
# T1 construct: purchased Cayman Chemicals Inc., Ann Arbor, MI, USA 560131
# T1 sequence (P05979 25-600): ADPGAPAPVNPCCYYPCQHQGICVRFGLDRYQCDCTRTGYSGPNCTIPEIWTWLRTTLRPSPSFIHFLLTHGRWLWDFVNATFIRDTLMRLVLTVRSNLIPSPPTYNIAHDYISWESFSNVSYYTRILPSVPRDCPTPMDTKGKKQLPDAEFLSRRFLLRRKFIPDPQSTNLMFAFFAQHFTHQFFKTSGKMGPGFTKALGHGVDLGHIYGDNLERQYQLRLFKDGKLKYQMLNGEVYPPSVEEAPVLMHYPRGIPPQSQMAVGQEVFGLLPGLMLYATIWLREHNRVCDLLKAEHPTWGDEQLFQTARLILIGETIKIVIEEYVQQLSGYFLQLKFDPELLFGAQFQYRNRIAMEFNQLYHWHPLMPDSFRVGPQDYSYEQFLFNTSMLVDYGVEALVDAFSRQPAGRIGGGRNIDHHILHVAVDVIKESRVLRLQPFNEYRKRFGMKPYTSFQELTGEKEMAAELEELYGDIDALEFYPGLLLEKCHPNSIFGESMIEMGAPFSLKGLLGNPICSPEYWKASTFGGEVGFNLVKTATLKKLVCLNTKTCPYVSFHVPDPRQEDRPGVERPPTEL
# Experimental: (§1) Inhibitory activities were defined as a test compound concentration achieving 50% human COX-1 or human COX-2 inhibition. The selectivity of compounds was referred to as a compound’s selectivity index values calculated as IC50 (COX-1)/IC50 (COX-2).
# (§2) In vitro human COX-1 and human COX-2 enzymatic inhibitory activity of the tested compounds as well as the reference drugs was carried out according to the previously mentioned procedures; for details, see Page S15, Supplementary File.
# (§3) 4.2. Biological screening
# (§4) 4.2.1. In vitro human COX-1 and human COX-2 enzymatic inhibitory activities In vitro human COX-1 and human COX-2 enzymatic inhibitory activity of the tested compounds as well as the reference drugs was carried out according to the previously mentioned procedures [1][2]depending on Cayman colorimetric COX (ovine) inhibitor screening assay kit (Catalog No.
# (§5) All reagents, test solutions and experimental procedures were performed in correspondence to both the manufacturer’s instructions and previously reported methods. Briefly, […] of different concentrations of tested compound solutions were added to a series of supplied reaction buffer solutions (960 µL, 0.1 M Tris-HCl, pH 8.0 containing 5 mM EDTA and 2 mM phenol) with either COX-1 or COX-2 (10 µL) enzyme in the presence of heme (10 µL). 10 µL of Arachidonic Acid (100 µM) solution were added to the mixtures of the enzyme and tested compounds, After incubating for 5 min at 25 °C followed by stopping COX reaction by adding of 50 µL of 1 M HCl. Moreover, after adding 100 µL of saturated stannous chloride solution, the absorbance was measured spectrophotometrically using plate reader. measuring the […]
# (§6) percentage of human COX-1 or human COX-2 enzymatic inhibition of five different concentrations of each compound and then concentration-inhibition response curve were plotted to obtain IC50 values(three determinations). […]
# [2] = molecular target: T2, human COX-2 (Homo sapiens, UniProt P35354); experiment: In vitro human COX-2 enzymatic inhibitory activity (Cayman COX inhibitor screening assay kit); type: biochemical; settings: for SI COX-1/COX-2: COX-2 selectivity index: COX-1 IC50/COX-2 IC50; for IC50: mean ± SEM of triplicate determinations
# T2 construct: purchased Cayman Chemicals Inc., Ann Arbor, MI, USA 560131
# T2 sequence (P35354 18-604): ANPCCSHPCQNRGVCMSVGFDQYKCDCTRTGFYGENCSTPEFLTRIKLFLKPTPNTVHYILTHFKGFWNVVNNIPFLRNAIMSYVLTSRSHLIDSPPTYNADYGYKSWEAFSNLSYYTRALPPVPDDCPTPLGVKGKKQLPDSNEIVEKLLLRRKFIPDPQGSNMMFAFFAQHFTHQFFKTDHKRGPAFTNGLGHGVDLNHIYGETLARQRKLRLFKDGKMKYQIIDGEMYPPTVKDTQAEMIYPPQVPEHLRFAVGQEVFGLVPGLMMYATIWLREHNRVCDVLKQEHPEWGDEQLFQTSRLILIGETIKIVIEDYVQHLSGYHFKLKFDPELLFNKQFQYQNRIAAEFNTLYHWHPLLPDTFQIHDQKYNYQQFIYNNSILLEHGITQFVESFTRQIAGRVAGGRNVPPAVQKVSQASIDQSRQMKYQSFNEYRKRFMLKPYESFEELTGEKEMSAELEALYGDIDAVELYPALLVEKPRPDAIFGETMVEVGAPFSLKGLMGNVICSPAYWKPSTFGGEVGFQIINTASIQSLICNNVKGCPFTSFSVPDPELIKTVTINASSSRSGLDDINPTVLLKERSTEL
# Experimental: as §1, §2, §3, §4, §5, §6
melting point [°C],IC50 [1] [µM],SI COX-1/COX-2 [2],IC50 [2] [µM],Structure (SMILES)
257 to 259,11.17 ± 0.0333,159.57,0.07 ± 0.0006,"CC(=NNC(=O)C(C)c1ccc(CC(C)C)cc1)c1nnn(-c2ccc(S(=O)(=O)Nc3ncccn3)cc2)c1C (stereo not shown) [Compound 6c, 4-(4-(1-(2-(2-(4-Isobutylphenyl)propanoyl)hydrazineylidene)ethyl)-5-methyl-1H-1,2,3-triazol-1-yl)-N-(pyrimidin-2-yl)benzenesulfonamide]"
227 to 229,8.27 ± 0.0667,91.89,0.09 ± 0.0006,"CC(=NNC(=O)c1ccccc1O)c1nnn(-c2ccc(S(=O)(=O)Nc3nccs3)cc2)c1C [Compound 6h, 4-(4-(1-(2-(2-Hydroxybenzoyl)hydrazineylidene)ethyl)-5-methyl-1H-1,2,3-triazol-1-yl)-N-(thiazol-2-yl)benzenesulfonamide]"
233 to 235,8.23 ± 0.0667,91.44,0.09 ± 0.0003,"CC(=O)c1nnn(-c2ccc(S(=O)(=O)Nc3ncccn3)cc2)c1C [Compound 4c, 4-(4-Acetyl-5-methyl-1H-1,2,3-triazol-1-yl)-N-(pyrimidin-2-yl)benzenesulfonamide]"
220 to 222,6.67 ± 0.0667,83.38,0.08 ± 0.0006,"CC(=NNC(=O)c1ccccc1O)c1nnn(-c2ccc(S(N)(=O)=O)cc2)c1C [Compound 6g, 4-(4-(1-(2-(2-Hydroxybenzoyl)hydrazineylidene)ethyl)-5-methyl-1H-1,2,3-triazol-1-yl)benzenesulfonamide]"
276 to 278,12.67 ± 0.0333,158.38,0.08 ± 0.0007,"CC(=NNC(=O)Cc1ccccc1Nc1c(Cl)cccc1Cl)c1nnn(-c2ccc(S(=O)(=O)Nc3ncccn3)cc2)c1C [Compound 6f, 4-(4-(1-(2-(2-(2-((2,6-Dichlorophenyl)amino)phenyl)acetyl)hydrazineylidene)ethyl)-5-methyl-1H-1,2,3-triazol-1-yl)-N-(pyrimidin-2-yl)benzenesulfonamide]"
248 to 250,10.23 ± 0.0882,146.14,0.07 ± 0.0006,"CC(=NNC(=O)c1ccccc1O)c1nnn(-c2ccc(S(=O)(=O)Nc3ncccn3)cc2)c1C [Compound 6i, 4-(4-(1-(2-(2-Hydroxybenzoyl)hydrazineylidene)ethyl)-5-methyl-1H-1,2,3-triazol-1-yl)-N-(pyrimidin-2-yl)benzenesulfonamide]"
241 to 243,9.27 ± 0.0667,84.27,0.11 ± 0.0057,"CC(=O)c1nnn(-c2ccc(S(=O)(=O)Nc3nccc(C)n3)cc2)c1C [Compound 4d, 4-(4-Acetyl-5-methyl-1H-1,2,3-triazol-1-yl)-N-(4-methylpyrimidin-2-yl)benzenesulfonamide]"

# Reference: publication PMC9609428, “Rational Design and Synthesis of New Selective COX-2 Inhibitors with In Vivo PGE2-Lowering Activity by Tethering Benzenesulfonamide and 1,2,3-Triazole Pharmacophores to Some NSAIDs” (Pharmaceuticals, 2022)
